In ChEMBL document CHEMBL4725277, “Synthetic and therapeutic perspectives of nitrogen containing heterocycles as anti-convulsants” (Bioorg Med Chem, 2020):

Experiments:
Mus musculus [1] = test: Anticonvulsant activity in albino mouse assessed as protection against 50 mA current-induced seizure at 25 mg/kg by maximal electroshock seizure test relative to control; format: functional
[2] = Protective index, ratio of TD50 for neurotoxicity in mouse to ED50 for anticonvulsant activity in mouse assessed as protection against 50 mA current-induced seizure; format: toxicity; conditions: in vivo, read-out: PI
[3] = Neurotoxicity in mouse by rotarod test; format: toxicity; conditions: in vivo
Mus musculus [4] = organism: Mus musculus; test: Anticonvulsant activity in mouse assessed as protection against 50 mA current-induced seizure after 0.5 hrs by maximal electroshock seizure test; format: functional
[5] = Protective index, ratio of TD50 for neurotoxicity in mouse to ED50 for anticonvulsant activity in mouse assessed as protection against pentylenetetrazole-induced seizure; format: toxicity; conditions: in vivo, read-out: PI
Mus musculus [6] = organism: Mus musculus; test: Anticonvulsant activity in mouse assessed as protection against current-induced seizure by maximal electroshock seizure test; format: functional
[7] = Protective index, ratio of TD50 for neurotoxicity in mouse to ED50 for anticonvulsant activity in mouse assessed as protection against current-induced seizure; format: toxicity; conditions: in vivo, read-out: PI
Mus musculus [8] = organism: Mus musculus; test: Anticonvulsant activity in albino mouse assessed as pentylenetetrazole-induced seizure; format: functional
[9] = Neurotoxicity in ip and po injected mouse; format: toxicity, organism-based; conditions: in vivo
[10] = Protective index, ratio of TD50 for neurotoxicity in ip and po injected mouse to ED50 for anticonvulsant activity in mouse assessed as protection against 50 mA current-induced seizure; format: toxicity, organism-based; conditions: in vivo, read-out: PI
Mus musculus [11] = organism: Mus musculus; test: Anticonvulsant activity in albino mouse assessed as current-induced seizure relative to control; format: functional
Mus musculus [12] = organism: Mus musculus; test: Anticonvulsant activity in albino mouse assessed as current-induced seizure latency time; format: functional
[13] = Neurotoxicity in ip injected albino mouse; format: toxicity, organism-based; conditions: in vivo
Mus musculus [14] = test: Anticonvulsant activity in ip injected albino mouse assessed as protection against 50 mA current-induced seizure by maximal electroshock seizure test; format: functional
[15] = Protective index, ratio of TD50 for neurotoxicity in ip injected albino mouse to ED50 for anticonvulsant activity in ip injected albino mouse assessed as protection against 50 mA current-induced seizure; format: toxicity, organism-based; conditions: in vivo
[16] = Neurotoxicity in KunMing mouse by rotarod test; format: toxicity; conditions: KunMing, in vivo, read-out: TD50
Mus musculus [17] = organism: Mus musculus; test: Anticonvulsant activity in KunMing mouse assessed as protection against pentylenetetrazole-induced seizure by maximal electroshock seizure test; format: functional
[18] = Protective index, ratio of TD50 for neurotoxicity in KunMing mouse to ED50 for anticonvulsant activity in KunMing mouse assessed as protection against current-induced seizure; format: toxicity; conditions: in vivo, read-out: PI
[19] = Protective index, ratio of TD50 for neurotoxicity in KunMing mouse to ED50 for anticonvulsant activity in KunMing mouse assessed as protection against pentylenetetrazole-induced seizure; format: toxicity; conditions: in vivo, read-out: PI
Mus musculus [20] = organism: Mus musculus; test: Anticonvulsant activity in KunMing mouse assessed as protection against current-induced seizure by maximal electroshock seizure test; format: functional
Mus musculus [21] = organism: Mus musculus; test: Anticonvulsant activity in KunMing mouse assessed as protection against 50 mA current-induced seizure after 0.5 to 4 hrs by maximal electroshock seizure test; format: functional; conditions: time hrs 0.5-4
Mus musculus [22] = organism: Mus musculus; test: Anticonvulsant activity in albino mouse assessed as pentylenetetrazole-induced seizure measured after 30 mins; format: functional; conditions: 0.5 h
Mus musculus [23] = test: Anticonvulsant activity in ip injected albino mouse assessed as protection against 50 mA current-induced seizure after 0.5 to 4 hrs interval by maximal electroshock seizure test; format: functional; conditions: time hrs 0.5-4
[24] = Protective index, ratio of TD50 for neurotoxicity in ip injected albino mouse to ED50 for anticonvulsant activity in albino mouse assessed as pentylenetetrazole-induced seizure; format: toxicity, organism-based; conditions: in vivo
Mus musculus [25] = organism: Mus musculus; test: Anticonvulsant activity in albino mouse assessed as protection against 50 mA current-induced seizure by maximal electroshock seizure test; format: functional
Mus musculus [26] = test: Anticonvulsant activity in albino mouse assessed as protection against 50 mA current-induced seizure at 100 mg/kg by maximal electroshock seizure test relative to control; format: functional
Mus musculus [27] = organism: Mus musculus; test: Anticonvulsant activity in albino mouse assessed as protection against 50 mA current-induced seizure; format: functional; conditions: read-out: PD50
Mus musculus [28] = test: Anticonvulsant activity in albino mouse assessed as protection against 50 mA current-induced seizure at 50 mg/kg by maximal electroshock seizure test relative to control; format: functional
Mus musculus [29] = test: Anticonvulsant activity in albino mouse assessed as protection against 50 mA current-induced seizure at 200 mg/kg by maximal electroshock seizure test relative to control; format: functional
[30] = Lipophilicity, log P of the compound; format: physicochemical; conditions: octanol/water
[31] = Neurotoxicity in albino rat at 100 mg/kg, ip after 30 mins (reference value: 2%); format: toxicity, organism-based; conditions: in vivo, 0.5 h
[32] = Protective index, ratio of TD50 for neurotoxicity in KunMing mouse to ED50 for anticonvulsant activity in KunMing mouse assessed as protection against 50 mA current-induced seizure; format: toxicity; conditions: in vivo, read-out: PI
[33] = Neurotoxicity in KunMing mouse after 30 mins by rotarod test; format: toxicity; conditions: in vivo
Mus musculus [34] = organism: Mus musculus; test: Anticonvulsant activity in KunMing mouse assessed as protection against 50 mA current-induced seizure after 30 mins interval by maximal electroshock seizure test; format: functional; conditions: 0.5 h

Clc1ccc(Nc2nnc(-c3ccncc3)s2)cc1
Activity (Mus musculus [1]): 100%

FC(F)(F)c1cccc(COc2nn3cnnc3c3ccccc23)c1
selectivity ratio [2]: 91.7 | TD50 [3]: 853 mg/kg | ED50 (Mus musculus [4]; Mus musculus, read-out: ED50): 9.3 mg/kg

Cc1ccc(NC(=S)N2C(=S)N=C(c3ccccc3)CC2c2ccc(O)cc2)cc1 (centres undefined)
selectivity ratio [5]: 1.9 | ED50 (Mus musculus [6]): 15.6 mg/kg | selectivity ratio [7]: 34.2 | TD50 [3]: 534 mg/kg | ED50 (Mus musculus [8]): 278 mg/kg

O=c1c2ccccc2n2cnnc2n1-c1ccc(Cl)cc1
TD50 [9]: > 700 mg/kg | ED50 (Mus musculus [4]): 27.39 | selectivity ratio [10]: > 25.6

CC(=O)Oc1cc2ccccc2cc1-c1nnc(N(CCc2ccccc2)C(C)=O)s1
Activity (Mus musculus [11]): 90% | Time (Mus musculus [12]): 5.92 min

Nc1nc(-c2ccccc2)nnc1C(=O)N1CCCC1c1noc2cc(Cl)ccc12 (centres undefined)
TD50 [13]: 103 mg/kg | ED50 (Mus musculus [14]): 5.7 mg/kg | selectivity ratio ([15]; read-out: Ratio): > 18

Clc1ccc(C2Cc3nncn3-c3ccsc32)cc1 (centres undefined)
TD50 [16]: 456 mg/kg | ED50 (Mus musculus [17]): 20.5 mg/kg | selectivity ratio [18]: 48 | selectivity ratio [19]: 22.2 | ED50 (Mus musculus [20]): 9.5 mg/kg

O=c1[nH]nc2n1-c1ccc(OCc3ccc(F)cc3)cc1SCC2
ED50 (Mus musculus [21]): 26.3 mg/kg | selectivity ratio [2]: 12.6 | TD50 [3]: 331 mg/kg

COc1ccc(N2C(=S)N=C(c3ccccc3)CC2c2ccccc2)cc1 (centres undefined)
ED50 (Mus musculus [22]): 378 mg/kg | TD50 [13]: 534 mg/kg | ED50 (Mus musculus [23]): 16.8 mg/kg | selectivity ratio ([15]; read-out: PI): 31.8 | selectivity ratio ([24]; read-out: PI): 1.4

Nc1nnc(-c2ccccc2OCc2ccccc2F)o1
ED50 (Mus musculus [22]): 9 mg/kg | ED50 (Mus musculus [25]): 16.2 mg/kg

O=C1CN=C2c3ccccc3N=C(COc3ccc(Cl)cc3Cl)N2N1
Activity (Mus musculus [26]): 90% | ED50 (Mus musculus [27]): 87.5 mg/kg | Activity (Mus musculus [28]): 60% | Activity (Mus musculus [29]): 90%

COc1ccc(-c2nc(N/N=C/c3ccc(Br)cc3)[nH]c(=O)c2C#N)cc1
logP [30]: 2.45

Clc1ccc(Nc2nnc(-c3ccncc3)o2)cc1
Activity (Mus musculus [1]): 100%

COc1ccc(-c2nc(N/N=C/c3ccc(O)cc3)[nH]c(=O)c2C#N)cc1
logP [30]: 1.27

CN(C)CCOc1ccc2c(c1)C(=O)C(=O)N2
Activity [31]: 7%

Clc1ccc(Oc2cccc3nncn23)cc1
ED50 (Mus musculus [6]): 13.2 mg/kg | selectivity ratio [7]: 4.8 | TD50 [3]: 63.4 mg/kg

CCCCOc1ccc2c(c1)sc1n[nH]c(=O)n12
ED50 (Mus musculus [6]): 13.6 mg/kg | selectivity ratio [7]: > 51 | TD50 [3]: > 700 mg/kg

CCCCCCOc1ccc2c(c1)CCc1nnc(C(N)=O)n1-2
selectivity ratio [32]: 9.5 | TD50 at 0.5 h [33]: 286 mg/kg | ED50 (Mus musculus [34]): 30.1 mg/kg

CN(C)Nc1ccc(/C=N/Nc2nnc(-c3ccccc3)nc2Cc2cccc(Cl)c2)cc1
ED50 (Mus musculus [22]): 92 mg/kg | TD50 [13]: 435 mg/kg | ED50 (Mus musculus [23]): 54.3 mg/kg | selectivity ratio ([15]; read-out: Ratio): 8.01 | selectivity ratio ([24]; read-out: Ratio): 4.73
